Measured values published in patent publication US11162944B2, “Compositions and methods” (priority 2015, dated 2021).
Read-outs that look alike come from different tables or passages of the source. Marks after values point to notes of the source that are not given here.

System: biomarker (antibody) in serum samples from patients with symptoms of tuberculosis
Assay type: binding, human

In the case of `CCCCCCCCCCCCCCCCCCCCCCCC[C@@H](C(=O)OC[C@H]1O[C@H](OC)[C@@H](O)[C@@H]1O)[C@H](O)CCCCCCCCCCC[C@H]1CC1CCCCCCCCCCCCCC[C@H]1C[C@H]1CCCCCCCCCCCCCCCCCCCC` (some centres unmarked) [Antigen F], the “ELISA absorbance at 492 nm” value (serum sample 1 TB+) is reported as 0.74*, the “ELISA absorbance at 492 nm” value (serum sample 2 TB+) is reported as 0.76* and the “ELISA absorbance at 492 nm” value (serum sample 3 TB+) is reported as 0.99*. For the same compound, the “ELISA absorbance at 492 nm” value (serum sample 4 TB+) was 0.97*, the “ELISA absorbance at 492 nm” value (serum sample 5 TB+) was 0.99* and the “ELISA absorbance at 492 nm” value (serum sample 6 TB+) was 1.39*. For the same compound, the “ELISA absorbance at 492 nm” value (serum sample 7 TB+) was 1.97*, the “ELISA absorbance at 492 nm” value (serum sample 8 TB+) was 1.67* and the “ELISA absorbance at 492 nm” value (serum sample 9 TB+) was 1.09*. For the same compound, the “ELISA absorbance at 492 nm” value (serum sample 10 TB−) was 0.59, the “ELISA absorbance at 492 nm” value (serum sample 11 TB−) was 0.92* and the “ELISA absorbance at 492 nm” value (serum sample 12 TB−) was 0.84*. For the same compound, the “ELISA absorbance at 492 nm” value (serum sample 13 TB−) was 0.60, the “ELISA absorbance at 492 nm” value (serum sample 14 TB−) was 1.30* and the “ELISA absorbance at 492 nm” value (serum sample 15 TB−) was 0.64. The “ELISA absorbance at 492 nm” value (serum sample 16 TB−) was 0.56, the “ELISA absorbance at 492 nm” value (serum sample 17 TB−) was 0.81* and the “ELISA absorbance at 492 nm” value (serum sample 18 TB−) was 0.68. For the same compound, the “ELISA absorbance at 492 nm” value (serum sample 19 TB−) was 0.71*, the “ELISA absorbance at 492 nm” value (serum sample 20 TB−) was 1.03* and the “ELISA absorbance at 492 nm” value (serum sample 21 TB−) was 0.61. For the same compound, the “ELISA absorbance at 492 nm” value (serum sample 22 TB−) was 0.66, the “ELISA absorbance at 492 nm” value (serum sample 23 TB−) was 0.81* and the “ELISA absorbance at 492 nm” value (serum sample 24 TB−) was 0.62. The “ELISA absorbance at 492 nm” value (serum sample 25 TB−) was 0.21, the “ELISA absorbance at 492 nm” value (serum sample 26 TB−) was 0.72 and the “ELISA absorbance at 492 nm” value (serum sample 27 TB−) was 0.61. The “ELISA absorbance at 492 nm” value (serum sample 28 TB−) was 0.38, the “ELISA absorbance at 492 nm” value (serum sample 29 TB−) was 0.41 and the “ELISA absorbance at 492 nm” value (serum sample 30 TB−) was 0.39. For the same compound, the “ELISA absorbance at 492 nm” value (serum sample 31 TB−) was 0.51, the “ELISA absorbance at 492 nm” value (serum sample 32 TB−) was 0.91* and the “ELISA absorbance at 492 nm” value (serum sample 33 TB−) was 0.42. The “ELISA absorbance at 492 nm” value (serum sample 34 TB−) was 0.49, the “ELISA absorbance at 492 nm” value (serum sample 35 TB−) was 0.38 and the “ELISA absorbance at 492 nm” value (serum sample 36 TB−) was 0.28. The “ELISA absorbance at 492 nm” value (serum sample 37 TB−) was 0.55, the “ELISA absorbance at 492 nm” value (serum sample 38 TB−) was 0.52 and the “ELISA absorbance at 492 nm” value (serum sample 39 TB−) was 0.35. For the same compound, the “ELISA absorbance at 492 nm” value (serum sample 40 TB−) was 0.35, the “ELISA absorbance at 492 nm” value (serum sample 41 TB−) was 0.66 and the “ELISA absorbance at 492 nm” value (serum sample 42 TB−) was 0.55. The “ELISA absorbance at 492 nm” value (serum sample 43 TB−) was 0.30, the “ELISA absorbance at 492 nm” value (serum sample 44 TB−) was 0.98* and the “ELISA absorbance at 492 nm” value (serum sample 45 TB−) was 0.43. For the same compound, the “ELISA absorbance at 492 nm” value (serum sample 46 TB−) was 0.31, the “ELISA absorbance at 492 nm” value (serum sample 47 TB−) was 0.56 and the “ELISA absorbance at 492 nm” value (serum sample 48 TB−) was 0.32. The “ELISA absorbance at 492 nm” value (serum sample 49 TB−) was 0.51, the “ELISA absorbance at 492 nm” value (serum sample 50 TB−) was 0.37 and the “ELISA absorbance at 492 nm” value (serum sample 51 TB−) was 0.21. The “ELISA absorbance at 492 nm” value (serum sample 52 TB−) was 0.36, the “ELISA absorbance at 492 nm” value (serum sample 53 TB−) was 0.26 and the “ELISA absorbance at 492 nm” value (serum sample 54 TB−) was 0.27. For the same compound, the “ELISA absorbance at 492 nm” value (serum sample 55 TB−) was 0.27, the “ELISA absorbance at 492 nm” value (serum sample 56 TB−) was 0.73* and the “ELISA absorbance at 492 nm” value (serum sample 57 TB−) was 0.37. For the same compound, the “ELISA absorbance at 492 nm” value (serum sample 58 TB−) was 0.41, the “ELISA absorbance at 492 nm” value (serum sample 59 TB−) was 0.45 and the “ELISA absorbance at 492 nm” value (serum sample 60 TB−) was 0.44. For the same compound, the “ELISA absorbance at 492 nm” value (serum sample 61 TB−) was 0.41, the “ELISA absorbance at 492 nm” value (serum sample 62 TB−) was 0.30 and the “ELISA absorbance at 492 nm” value (serum sample 63 TB−) was 0.25. The “ELISA absorbance at 492 nm” value (serum sample 64 TB−) was 0.29.
`CCCCCCCCCCCCCCCCCCCCCC[C@@H](C(=O)OC[C@H]1O[C@H](OC)[C@@H](O)[C@@H]1O)[C@H](O)CCCCCCCCCCCCCCCCC[C@@H]1C[C@@H]1CCCCCCCCCCCCCCCC[C@@H](OC)[C@@H](C)CCCCCCCCCCCCCCCCCC` [Antigen A] was tested, and the “ELISA absorbance at 492 nm” value (serum sample 1 TB+) was 0.28*, the “ELISA absorbance at 492 nm” value (serum sample 2 TB+) was 0.29* and the “ELISA absorbance at 492 nm” value (serum sample 3 TB+) was 0.30*. For the same compound, the “ELISA absorbance at 492 nm” value (serum sample 4 TB+) was 0.50*, the “ELISA absorbance at 492 nm” value (serum sample 5 TB+) was 0.28* and the “ELISA absorbance at 492 nm” value (serum sample 6 TB+) was 0.28*. For the same compound, the “ELISA absorbance at 492 nm” value (serum sample 7 TB+) was 0.93*, the “ELISA absorbance at 492 nm” value (serum sample 8 TB+) was 0.47* and the “ELISA absorbance at 492 nm” value (serum sample 9 TB+) was 0.29*. The “ELISA absorbance at 492 nm” value (serum sample 10 TB−) was 0.21, the “ELISA absorbance at 492 nm” value (serum sample 11 TB−) was 0.20 and the “ELISA absorbance at 492 nm” value (serum sample 12 TB−) was 0.18. For the same compound, the “ELISA absorbance at 492 nm” value (serum sample 13 TB−) was 0.22, the “ELISA absorbance at 492 nm” value (serum sample 14 TB−) was 0.49* and the “ELISA absorbance at 492 nm” value (serum sample 15 TB−) was 0.23. The “ELISA absorbance at 492 nm” value (serum sample 16 TB−) was 0.31*, the “ELISA absorbance at 492 nm” value (serum sample 17 TB−) was 0.52* and the “ELISA absorbance at 492 nm” value (serum sample 18 TB−) was 0.28*. The “ELISA absorbance at 492 nm” value (serum sample 19 TB−) was 0.20, the “ELISA absorbance at 492 nm” value (serum sample 20 TB−) was 0.34* and the “ELISA absorbance at 492 nm” value (serum sample 21 TB−) was 0.47*. For the same compound, the “ELISA absorbance at 492 nm” value (serum sample 22 TB−) was 0.23, the “ELISA absorbance at 492 nm” value (serum sample 23 TB−) was 0.25 and the “ELISA absorbance at 492 nm” value (serum sample 24 TB−) was 0.29*. For the same compound, the “ELISA absorbance at 492 nm” value (serum sample 25 TB−) was 0.18, the “ELISA absorbance at 492 nm” value (serum sample 26 TB−) was 0.52* and the “ELISA absorbance at 492 nm” value (serum sample 27 TB−) was 0.31*. For the same compound, the “ELISA absorbance at 492 nm” value (serum sample 28 TB−) was 0.28*, the “ELISA absorbance at 492 nm” value (serum sample 29 TB−) was 0.28* and the “ELISA absorbance at 492 nm” value (serum sample 30 TB−) was 0.32*. For the same compound, the “ELISA absorbance at 492 nm” value (serum sample 31 TB−) was 0.31*, the “ELISA absorbance at 492 nm” value (serum sample 32 TB−) was 0.34* and the “ELISA absorbance at 492 nm” value (serum sample 33 TB−) was 0.18. The “ELISA absorbance at 492 nm” value (serum sample 34 TB−) was 0.39*, the “ELISA absorbance at 492 nm” value (serum sample 35 TB−) was 0.23 and the “ELISA absorbance at 492 nm” value (serum sample 36 TB−) was 0.11. For the same compound, the “ELISA absorbance at 492 nm” value (serum sample 37 TB−) was 0.28*, the “ELISA absorbance at 492 nm” value (serum sample 38 TB−) was 0.29* and the “ELISA absorbance at 492 nm” value (serum sample 39 TB−) was 0.21. For the same compound, the “ELISA absorbance at 492 nm” value (serum sample 40 TB−) was 0.18, the “ELISA absorbance at 492 nm” value (serum sample 41 TB−) was 0.18 and the “ELISA absorbance at 492 nm” value (serum sample 42 TB−) was 0.30*. For the same compound, the “ELISA absorbance at 492 nm” value (serum sample 43 TB−) was 0.25, the “ELISA absorbance at 492 nm” value (serum sample 44 TB−) was 0.41* and the “ELISA absorbance at 492 nm” value (serum sample 45 TB−) was 0.33*. For the same compound, the “ELISA absorbance at 492 nm” value (serum sample 46 TB−) was 0.13, the “ELISA absorbance at 492 nm” value (serum sample 47 TB−) was 0.34* and the “ELISA absorbance at 492 nm” value (serum sample 48 TB−) was 0.32*. For the same compound, the “ELISA absorbance at 492 nm” value (serum sample 49 TB−) was 0.38*, the “ELISA absorbance at 492 nm” value (serum sample 50 TB−) was 0.35* and the “ELISA absorbance at 492 nm” value (serum sample 51 TB−) was 0.11. The “ELISA absorbance at 492 nm” value (serum sample 52 TB−) was 0.21, the “ELISA absorbance at 492 nm” value (serum sample 53 TB−) was 0.16 and the “ELISA absorbance at 492 nm” value (serum sample 54 TB−) was 0.17. For the same compound, the “ELISA absorbance at 492 nm” value (serum sample 55 TB−) was 0.24, the “ELISA absorbance at 492 nm” value (serum sample 56 TB−) was 0.68* and the “ELISA absorbance at 492 nm” value (serum sample 57 TB−) was 0.25. The “ELISA absorbance at 492 nm” value (serum sample 58 TB−) was 0.25, the “ELISA absorbance at 492 nm” value (serum sample 59 TB−) was 0.33* and the “ELISA absorbance at 492 nm” value (serum sample 60 TB−) was 0.37*. For the same compound, the “ELISA absorbance at 492 nm” value (serum sample 61 TB−) was 0.52*, the “ELISA absorbance at 492 nm” value (serum sample 62 TB−) was 0.19 and the “ELISA absorbance at 492 nm” value (serum sample 63 TB−) was 0.16. For the same compound, the “ELISA absorbance at 492 nm” value (serum sample 64 TB−) was 2.50*.
